pIC50: −log10 of the molar value.
Legend:
HPAC cells (KRAS G12D) [1] = test: 3D Cell viability assay in HPAC cells (Biological Example 6); type: cell-based; conditions: Homo sapiens, HPAC, 72 h, HPAC (KRAS G12D) spheroids
How it was run: (§1)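 Spheroids formed from 1000 cells/well over 48 h in ultra-low-attachment plates, 10% FBS medium, 37 °C, 5% CO2. Then treated 72 h with a 9-point, three-fold compound series at 0.25% DMSO. Viability by CellTiter-Glo 3D luminescence, EC50 from four-parameter variable-slope fit.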

H1573 cells (KRAS G12A) = test: Cell-based pERK HTRF assay in H1573 cells (Biological Example 5); conditions: Homo sapiens, NCI-H1573
How it was run: (§2)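 Overnight-plated cells (2.5×10^4/well, 10% FBS); 2 h compound, 9-pt 3-fold curve, 0.25% DMSO, 37° C; lysis 30 min RT; Eu cryptate/D2 anti-pERK (T202/Y204) detection 24 h, 4° C; 665/620 ratio → % pERK → 4-PL EC50.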

HCT116 cells (KRAS G13D) = test: Cell-based pERK HTRF assay in HCT116 cells (Biological Example 5); conditions: Homo sapiens, HCT-116
How it was run: as §2

[2] = test system: MKN1 cells (KRAS amplification); test: Cell-based pERK HTRF assay in MKN1 cells (Biological Example 5); conditions: Homo sapiens, MKN-1, MKN cells (MKN1, KRAS amplification)
How it was run: as §2

H358 cells (KRAS G12C) [3] = test: 3D Cell viability assay in H358 cells (Biological Example 6); type: cell-based; conditions: Homo sapiens, NCI-H358; H358 (KRAS G12C) spheroids, 72 hours
How it was run: as §1

RKN cells (KRAS G12V) [4] = test: 3D Cell viability assay in RKN cells (Biological Example 6); type: cell-based; conditions: RKN (KRAS G12V) spheroids, 72 hours
How it was run: as §1

[5] = test system: MKN1 cells (KRAS amplification); test: 3D Cell viability assay in MKN1 cells (Biological Example 6); type: cell-based; conditions: Homo sapiens, MKN-1; MKN (MKN1, KRAS amplification) spheroids, 72 hours
How it was run: as §1

AsPC-1 cells (KRAS G12D) [6] = test: Cell-based pERK HTRF assay in AsPC-1 cells (Biological Example 5); conditions: Homo sapiens, ASPC1, AsPC-1 (KRAS G12D) cells
How it was run: as §2

SW1900 cells (KRAS G12D) [7] = test: Cell-based pERK HTRF assay in SW1900 cells (Biological Example 5); conditions: Homo sapiens, SW1990, SW1990 cells (text: SW1900, KRAS G12D)
How it was run: as §2

HPAC cells (KRAS G12D) [8] = test: Cell-based pERK HTRF assay in HPAC cells (Biological Example 5); conditions: Homo sapiens, HPAC
How it was run: as §2

RKN cells (KRAS G12V) [9] = test: Cell-based pERK HTRF assay in RKN cells (Biological Example 5)
How it was run: as §2

[10] = test system: Capan-2 cells (KRAS G12V); test: Cell-based pERK HTRF assay in Capan-2 cells (Biological Example 5); conditions: Homo sapiens, Capan-2, Capan-2 (KRAS G12V) cells
How it was run: as §2

SW1900 cells (KRAS G12D) [11] = test: 3D Cell viability assay in SW1900 cells (Biological Example 6); type: cell-based; conditions: Homo sapiens; SW1990 (text: SW1900, KRAS G12D) spheroids, 72 hours
How it was run: as §1

AsPC-1 cells (KRAS G12D) [12] = test: 3D Cell viability assay in AsPC-1 cells (Biological Example 6); type: cell-based; conditions: Homo sapiens, ASPC1; AsPC-1 (KRAS G12D) spheroids, 72 hours
How it was run: as §1

[13] = test system: Capan-2 cells (KRAS G12V); test: 3D Cell viability assay in Capan-2 cells (Biological Example 6); type: cell-based; conditions: Homo sapiens; Capan-2 (KRAS G12V) spheroids, 72 hours
How it was run: as §1

KP-2 cells (KRAS G12R) = test: Cell-based pERK HTRF assay in KP-2 cells (Biological Example 5); conditions: KP-2 (KRAS G12R) cells
Procedure: Biological Example 5: Cell-based PERK HTRF assay in AsPC-1, SW1900, HPAC, Capan-2, RKN, H358, HCT116, KP-2, H1573, A549, MKN1, and HT1080 cells
The inhibition of ERK phosphorylation, as measured using the HTRF Advanced Phospho-ERK 1/2 (Thr202/Tyr204) Detection Assay kit (Perkin Elmer), was used to determine the effectiveness of test compounds in disrupting KRAS-driven protein/effector signaling in cells.
On day 1, cells were seeded into 96-well plates at 2.5×10^4 cells/well in 100 μL of complete growth media supplemented with 10% fetal bovine serum (FBS) and incubated at 37° C., in the presence of 5% CO2.
On day 2, cells were treated with compounds diluted in DMSO at 0.25% final DMSO concentration. Compounds were dosed in a 9-point concentration curve with three-fold dilution between concentrations. Cells were incubated in the presence of compound for two hours at 37° C. Following this treatment period, cells were harvested by aspirating the media, adding 40 μL of kit-supplied 1x lysis buffer per well, and shaking for 30 minutes at 250 rpm at room temperature.
Following cell lysis, samples were homogenized by pipetting up and down twenty times and 16 μL of cell lysate per well was transferred from the 96-well cell culture plate to two wells of a 384-well detection plate. A complete detection buffer was prepared by diluting D2 and Eu Cryptate antibodies 1:20 in kit-provided detection solution, 4 μL of complete detection buffer was then added to each well with lysate. Plates were incubated with gentle rocking for 24 hours at 4° C.
Following this incubation period, plates were centrifuged at 500×g for one minute and analyzed on a CLARIOstar plate reader. Data was imported into Microsoft Excel and the signal from the 665 nm channel was divided by the signal from the 620 nm channel. % pERK was calculated as: […]
Data was imported to the Prism software package (Graphpad) and EC50 values were calculated using the log (inhibitor) vs, response—variable slopc (Four parameters) model.

H358 cells (KRAS G12C) [14] = test: Cell-based pERK HTRF assay in H358 cells (Biological Example 5); conditions: Homo sapiens, NCI-H358, H358 (KRAS G12C) cells
How it was run: as §2

HT1080 cells (NRAS) = test: 3D Cell viability assay in HT1080 cells (Biological Example 6); type: cell-based; conditions: Homo sapiens, HT-1080; HT1080 (NRAS) spheroids, 72 hours
How it was run: as §1

SMILES | pIC50 (H1573 cells (KRAS G12A)) | pIC50 (HCT116 cells (KRAS G13D)) | pIC50 [2] | pIC50 (H358 cells (KRAS G12C) [3]) | pIC50 [5] | pIC50 (AsPC-1 cells (KRAS G12D) [6]) | pIC50 (SW1900 cells (KRAS G12D) [7]) | pIC50 (HPAC cells (KRAS G12D) [8]) | pIC50 (RKN cells (KRAS G12V) [9]) | pIC50 [10] | pIC50 (SW1900 cells (KRAS G12D) [11]) | pIC50 (AsPC-1 cells (KRAS G12D) [12]) | pIC50 (KP-2 cells (KRAS G12R)) | pIC50 (H358 cells (KRAS G12C) [14]) | pIC50 (HT1080 cells (NRAS)) | pIC50 (HPAC cells (KRAS G12D) [1]) | pIC50 (RKN cells (KRAS G12V) [4]) | pIC50 [13]
Cc1c(C(=O)N(C)C)nn2c1CN(c1nc(OC[C@@]34CCCN3C[C@H](F)C4)nc3c(F)c(-c4ccc(F)c5sc(N)c(C#N)c45)c(C(F)(F)F)cc13)CC2 [Compound 501] | 6.00 to 7.00 | 6.00 to 7.00 | ≥ 7.00 | ≥ 7.00 | ≥ 7.00 | ≥ 7.00 | ≥ 7.00 | ≥ 7.00 | ≥ 7.00 | ≥ 7.00 | ≥ 7.00 | ≥ 7.00 | 6.00 to 7.00 | ≥ 7.00 | – | 6.00 to 7.00 | ≥ 7.00 | ≥ 7.00
CCN(c1nc(OC[C@@]23CCCN2C[C@H](F)C3)nc2c(F)c(-c3ccc(F)c4sc(N)c(C#N)c34)c(C(F)(F)F)cc12)[C@H]1CCN(C(=O)N(C)C)C1 (atropisomer, axis not shown) [Compound 540, (3S)-3-[[7-(2-amino-3-cyano-7-fluoro-benzothiophen-4-yl)-8-fluoro-2-[[(2R,8S)-2-fluoro-1,2,3,5,6,7-hexahydropyrrolizin-8-yl]methoxy]-6-(trifluoromethyl)quinazolin-4-yl]-ethyl-amino]-N,N-dimethyl-pyrrolidine-1-carboxamide] | ≥ 7.00 | ≥ 7.00 | ≥ 7.00 | ≥ 7.00 | ≥ 7.00 | 6.00 to 7.00 | ≥ 7.00 | ≥ 7.00 | – | ≥ 7.00 | ≥ 7.00 | 6.00 to 7.00 | ≥ 7.00 | ≥ 7.00 | < 6.00 | 6.00 to 7.00 | – | ≥ 7.00
CCN(c1nc(OC[C@@]23CCCN2C[C@H](F)C3)nc2c(F)c(-c3ccc(F)c4sc(N)c(C#N)c34)c(C(F)(F)F)cc12)[C@H]1CCN(C(=O)C(C)C)C1 (single isomer, unassigned) [Compound 469] | ≥ 7.00 | ≥ 7.00 | ≥ 7.00 | ≥ 7.00 | ≥ 7.00 | ≥ 7.00 | ≥ 7.00 | 6.00 to 7.00 | ≥ 7.00 | ≥ 7.00 | ≥ 7.00 | ≥ 7.00 | 6.00 to 7.00 | ≥ 7.00 | < 6.00 | ≥ 7.00 | ≥ 7.00 | ≥ 7.00

Second part, led by results:

pIC50 (H1573 cells (KRAS G12A)) | pIC50 (HCT116 cells (KRAS G13D)) | pIC50 [2] | pIC50 (H358 cells (KRAS G12C) [3]) | pIC50 [5] | pIC50 (AsPC-1 cells (KRAS G12D) [6]) | pIC50 (SW1900 cells (KRAS G12D) [7]) | pIC50 (HPAC cells (KRAS G12D) [8]) | pIC50 (RKN cells (KRAS G12V) [9]) | pIC50 [10] | pIC50 (SW1900 cells (KRAS G12D) [11]) | pIC50 (AsPC-1 cells (KRAS G12D) [12]) | pIC50 (KP-2 cells (KRAS G12R)) | pIC50 (H358 cells (KRAS G12C) [14]) | pIC50 (HT1080 cells (NRAS)) | SMILES | pIC50 (HPAC cells (KRAS G12D) [1]) | pIC50 (RKN cells (KRAS G12V) [4]) | pIC50 [13]
≥ 7.00 | ≥ 7.00 | ≥ 7.00 | ≥ 7.00 | ≥ 7.00 | 6.00 to 7.00 | ≥ 7.00 | ≥ 7.00 | – | ≥ 7.00 | ≥ 7.00 | 6.00 to 7.00 | ≥ 7.00 | ≥ 7.00 | < 6.00 | CCC(=O)N1CC[C@@H](N(CC)c2nc(OC[C@@]34CCCN3C[C@H](F)C4)nc3c(F)c(-c4ccc(F)c5sc(N)c(C#N)c45)c(C(F)(F)F)cc23)[C@H]1C (atropisomer, axis not shown) [Compound 523] | < 6.00 | – | ≥ 7.00
≥ 7.00 | ≥ 7.00 | ≥ 7.00 | ≥ 7.00 | ≥ 7.00 | 6.00 to 7.00 | ≥ 7.00 | ≥ 7.00 | – | ≥ 7.00 | ≥ 7.00 | 6.00 to 7.00 | ≥ 7.00 | ≥ 7.00 | < 6.00 | CCN(c1nc(OC[C@@]23CCCN2C[C@H](F)C3)nc2c(F)c(-c3ccc(F)c4sc(N)c(C#N)c34)c(C(F)(F)F)cc12)[C@@H]1CCN(C(=O)C2CC2)[C@@H]1C (atropisomer, axis not shown) [Compound 524] | < 6.00 | – | ≥ 7.00
≥ 7.00 | ≥ 7.00 | ≥ 7.00 | ≥ 7.00 | ≥ 7.00 | ≥ 7.00 | ≥ 7.00 | ≥ 7.00 | ≥ 7.00 | ≥ 7.00 | ≥ 7.00 | ≥ 7.00 | 6.00 to 7.00 | ≥ 7.00 | < 6.00 | CCN(c1nc(OC[C@@]23CCCN2C[C@H](F)C3)nc2c(F)c(-c3ccc(F)c4sc(N)c(C#N)c34)c(C(F)(F)F)cc12)[C@H]1CCN(C(=O)OC)C1 (atropisomer, axis not shown) [Compound 541, methyl(3S)-3-[[7-(2-amino-3-cyano-7-fluoro-benzothiophen-4-yl)-8-fluoro-2-[[(2R,8S)-2-fluoro-1,2,3,5,6,7-hexahydropyrrolizin-8-yl]methoxy]-6-(trifluoromethyl)quinazolin-4-yl]-ethyl-amino]pyrrolidine-1-carboxylate] | ≥ 7.00 | ≥ 7.00 | ≥ 7.00
